Test: Phase 1 single-dose study, safety (treatment-emergent adverse events)
Type: in vivo, human
Method: In healthy subjects with normal renal function, solriamfetol HCl is renally excreted ~90% unchanged within 48 hours of administration. Thus, renal impairment, as well as hemodialysis in individuals with end-stage renal disease (ESRD), could affect the PK of solriamfetol HCl. To ascertain the precise impact of renal impairment and hemodialysis on pharmacokinetics and safety of solriamfetol RCl, a Phase 1, parallel-group, open-label, single-dose study was conducted at 2 U.S. sites. The protocol was approved by the IntegReview Institutional Review Board (Austin, Texas), and the study was conducted in compliance with the protocol, the Guideline for Good Clinical Practice E6; the US Code of Federal Regulations pertaining to conduct and reporting of clinical studies; the Clinical Trials Directive of the European Medicines Agency (Directive 2001/20/EC); and the Declaration of Helsinki. Written informed consent was obtained from each subject before enrollment in the study and before performance of any study-related procedure. See, also, Zomorodi K, Chen D, Lee L, Lasseter K, Marbury T. An Open-Label, Single-Dose, Phase 1 Study of the Pharmacokinetics and Safety of JZP-110 in Subjects With Normal or Impaired Renal Function and With End-Stage Renal Disease Requiring Hemodialysis [abstract]. Sleep. 2017;40 (suppl):A382-383.
Eligible participants were assigned to 1 of 5 groups according to renal disease status as measured by the estimated glomerular filtration rate (eGFR) on the day prior to dosing, calculated using the Modification in Diet in Renal Disease equation. Group 1 consisted of healthy participants with normal renal function (eGFR ≥ 90 mL/min/1.73 m^2) and served as the control group. Groups 2, 3, and 4 had mild, moderate, and severe renal impairment based on eGFRs of 60-89, 30-59, and < 30 mL/min/1.73 m^2, respectively. Group 5 consisted of participants with ESRD who required ≥ 3 hemodialysis treatments per week for the preceding 3 months. […] Group 1 was enrolled last to facilitate matching the mean age, BMI, and sex distribution of Groups 2-5.
Groups 1-4 received one dose of solriamfetol HCl (89.3 mg; equivalent to 75-mg solriamfetol) on day 1; Group 5 received one dose equivalent to 75-mg dose on day 1 followed by 4-hour hemodialysis (designated Group 5.2), and one dose equivalent to 75-mg solriamfetol on day 8 without hemodialysis (designated Group 5.1). All doses were administered on an empty stomach following an overnight fast except for participants in Group 5, who received a standardized snack on day 7 and breakfast early on day 8 before starting an 8-hour fast. Participants remained fasting for 4 hours after administration, with water allowed except for 1 hour before and after dosing.

[1] = Group 1 normal renal function (n = 6), single 75-mg dose
[2] = Group 2 mild renal impairment (n = 6), single 75-mg dose
[3] = Group 3 moderate renal impairment (n = 6), single 75-mg dose
[4] = Group 4 severe renal impairment (n = 6), single 75-mg dose
[5] = Group 5.1 ESRD without hemodialysis (n = 6), single 75-mg dose
[6] = Group 5.2 ESRD with hemodialysis (n = 7), single 75-mg dose

Structure (SMILES): NC(=O)OC[C@H](N)Cc1ccccc1 [solriamfetol, [R]-2-amino-3-phenylpropylcarbamate]
- aspartate aminotransferase (AST), increase to (1 participant, Group 5, 6 days after dosing, reference range 8-40 IU/L): 66 IU/L
- alanine aminotransferase (ALT), increase to (1 participant, Group 5, 6 days after dosing, reference range 8-54 IU/L): 144 IU/L
- ALT increased, number (%) of participants [1]: 0
- AST increased, number (%) of participants [1]: 0
- Any TEAE, number (%) of participants [1]: 0
- Headache, number (%) of participants [1]: 0
- Nausea, number (%) of participants [1]: 0
- Skin abrasion, number (%) of participants [1]: 0
- ALT increased, number (%) of participants [2]: 0
- AST increased, number (%) of participants [2]: 0
- Any TEAE, number (%) of participants [2]: 1 (17%)
- Headache, number (%) of participants [2]: 0
- Nausea, number (%) of participants [2]: 0
- Skin abrasion, number (%) of participants [2]: 1 (17%)
- ALT increased, number (%) of participants [3]: 0
- AST increased, number (%) of participants [3]: 0
- Any TEAE, number (%) of participants [3]: 1 (17%)
- Headache, number (%) of participants [3]: 1 (17%)
- Nausea, number (%) of participants [3]: 0
- Skin abrasion, number (%) of participants [3]: 0
- ALT increased, number (%) of participants [4]: 0
- AST increased, number (%) of participants [4]: 0
- Any TEAE, number (%) of participants [4]: 0
- Headache, number (%) of participants [4]: 0
- Nausea, number (%) of participants [4]: 0
- Skin abrasion, number (%) of participants [4]: 0
- ALT increased, number (%) of participants [5]: 0
- AST increased, number (%) of participants [5]: 0
- Any TEAE, number (%) of participants [5]: 1 (17%)
- Headache, number (%) of participants [5]: 0
- Nausea, number (%) of participants [5]: 1 (17%)
- Skin abrasion, number (%) of participants [5]: 0
- ALT increased, number (%) of participants [6]: 1 (14%)
- AST increased, number (%) of participants [6]: 1 (14%)
- Any TEAE, number (%) of participants [6]: 1 (14%)
- Headache, number (%) of participants [6]: 0
- Nausea, number (%) of participants [6]: 0
- Skin abrasion, number (%) of participants [6]: 0
- participants reporting treatment-emergent adverse events, total (all groups, 31 participants (13%)): 4
- deaths or other serious AEs (all groups, single 75-mg dose): no deaths or other serious AEs
- severity of all TEAEs as considered by the investigator (all groups, single 75-mg dose): mild
- vital sign and ECG measurements (all groups, single 75-mg dose): No clinically significant abnormal findings

Reference: patent US20230293475A1, “METHODS OF PROVIDING SO[…] TO SUBJECTS WITH IMPAIRED RENAL FUNCTION” (Axsome Malta Ltd., priority 2020, published 2023)
